The results in this text go back to patent publication US20240279202A1 (NURIX THERAPEUTICS, INC., priority 2021, published 2024).

SMILES strings stand for the structures.

The test concerns the target T1, ITK (Homo sapiens, UniProt Q08881).
T1 sequence (Q08881 1-620): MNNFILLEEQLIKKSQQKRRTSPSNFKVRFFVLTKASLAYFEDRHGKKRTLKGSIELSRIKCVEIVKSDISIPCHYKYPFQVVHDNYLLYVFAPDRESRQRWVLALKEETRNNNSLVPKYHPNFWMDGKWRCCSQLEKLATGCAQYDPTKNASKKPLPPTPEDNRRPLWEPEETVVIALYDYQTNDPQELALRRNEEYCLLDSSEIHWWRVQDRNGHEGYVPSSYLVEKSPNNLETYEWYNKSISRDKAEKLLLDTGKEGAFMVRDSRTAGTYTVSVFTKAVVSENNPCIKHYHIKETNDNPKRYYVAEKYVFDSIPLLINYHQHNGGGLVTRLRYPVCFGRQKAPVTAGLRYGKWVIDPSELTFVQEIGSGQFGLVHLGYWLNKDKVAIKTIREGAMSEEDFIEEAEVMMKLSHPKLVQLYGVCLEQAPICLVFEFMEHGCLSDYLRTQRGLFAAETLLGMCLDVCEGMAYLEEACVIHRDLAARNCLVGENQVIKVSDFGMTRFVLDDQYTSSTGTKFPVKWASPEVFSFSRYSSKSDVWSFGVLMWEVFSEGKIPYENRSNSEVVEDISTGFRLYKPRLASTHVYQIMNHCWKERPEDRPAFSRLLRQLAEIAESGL
The test can be described thus: ITK degradation HiBiT assay. Conditions: 4 hrs; for DC50: C-terminal HiBiT-tagged Molt4 cells; for Dmax: MOLT-4, C-terminal HiBiT-tagged Molt4 cells. The format is cell-based. More on the design: expressed in transfected cells; host or cells: Molt4 (ATCC CRL-1552), monoclonal clone 1C10, engineered to carry the HiBiT tag. The procedure, abridged: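 C-terminal HiBiT-tagged Molt4 cells (clone 1C10) treated 4 h at 32° C with an 11-point, 5-fold compound dilution series (0.5% DMSO). HiBiT lytic detection with LgBiT then luminescence read; % ITK remaining versus concentration fit by four-parameter variable-slope model to give DC50 and Dmax.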

Broadly, the DC50 is the concentration giving 50% degradation. The low end stands for a more potent degrader, the high end for a less potent degrader. One may read the Dmax as the largest share of the target that was removed. Compound `CC1(C)CCc2c(-c3cc4cc(F)c(C(=O)N5CCN(CC6CCN(c7ccc(C8CCC(=O)NC8=O)cc7)CC6)CC5)cc4[nH]3)n[nH]c2C1` (centres unmarked) [Compound 137, 3-(4-(4-((4-(2-(6,6-dimethyl-4,5,6,7-tetrahydro-1H-indazol-3-yl)-5-fluoro-1H-indole-6-carbonyl)piperazin-1-yl)methyl)piperidin-1-yl)phenyl)piperidine-2,6-dione] gave a DC50 of 4.4 nM and a Dmax of 81%. Consider `C[C@@H]1CN(C(=O)c2ccc3cc(-c4n[nH]c5c4C[C@@H]4C(F)(F)[C@]4(C)C5)[nH]c3c2)CCN1CC1CCN(c2ccc(C3CCC(=O)NC3=O)cc2F)CC1` (some centres unmarked) [Compound 161], for which the Dmax is 85%. The same measure, in the same setting: with `C[C@@]12Cc3[nH]nc(C(=O)Nc4cnn(C5CCN(C(=O)C6CCC(Oc7ccc(C8CCC(=O)NC8=O)cn7)CC6)CC5)c4)c3C[C@@H]1C2(F)F` (mixture of isomers) [Compound 168] the figure was 88%. Turning to `C[C@@H]1CN(C(=O)c2ccc3cc(-c4n[nH]c5c4C[C@@H]4C(F)(F)[C@]4(C)C5)[nH]c3c2)C[C@H](C)N1CC1CCN(c2ccc(C3CCC(=O)NC3=O)cc2)CC1` (some centres unmarked) [Compound 158], the greatest degradation seen (Dmax) was found to be 88%. `C[C@@]12Cc3[nH]nc(C(=O)Nc4cnn([C@H]5CC[C@H](CN6CCN(c7ccc(C(=O)NC8CCC(=O)NC8=O)nc7)CC6)CC5)c4)c3C[C@@H]1C2(F)F` (mixture of isomers) [Compound 127, N-[(3SR)-2,6-dioxopiperidin-3-yl]-5-(4-{[(1rs,4rs)-4-{4-[(4aS,5aR)-5,5-difluoro-5a-methyl-1H,4H,4aH,5H,5aH,6H-cyclopropa[f]indazole-3-amido]-1H-pyrazol-1-yl}cyclohexyl]methyl}piperazin-1-yl)pyridine-2-carboxamide] had a DC50 of 19.1 nM and a Dmax of 69%.

Turning to `C[C@H]1CN(c2ccc(C3CCC(=O)NC3=O)cn2)CCN1CC1CCN(C(=O)c2ccc3cc(-c4n[nH]c5c4CCC(C)(C)C5)[nH]c3c2)CC1` (some centres unmarked) [Compound 190], the Dmax was determined as 86%. The compound `C[C@@]12Cc3[nH]nc(-c4cc5cc(F)c(C(=O)N6CCN(CC7CCN(c8ccc(C(=O)N[C@H]9CCC(=O)NC9=O)nc8)CC7)CC6)cc5[nH]4)c3C[C@@H]1C2(F)F` [Compound 144] displayed a Dmax of 78%. `C[C@@]12Cc3[nH]nc(C(=O)Nc4cnn(C5CCC(CN6CCN(c7ccc(C8CCC(=O)NC8=O)cc7)CC6)CC5)c4)c3C[C@@H]1C2(F)F` (mixture of isomers) [Compound 126, (4aS,5aR)-5,5-difluoro-5a-methyl-N-{1-[(1rs,4rs)-4-[(4-{4-[(3RS)-2,6-dioxopiperidin-3-yl]phenyl}piperazin-1-yl)methyl]cyclohexyl]-1H-pyrazol-4-yl}-1H,4H,4aH,5H,5aH,6H-cyclopropa[f]indazole-3-carboxamide] yielded a DC50 of 1.4 nM and a Dmax of 91%. `C[C@@]12Cc3[nH]nc(-c4cc5cc(C(=O)N6CCN(CC7(F)CCN(c8ccc(C9CCC(=O)NC9=O)cc8)CC7)CC6)ccc5[nH]4)c3C[C@@H]1C2(F)F` (some centres unmarked) [Compound 141]: the Dmax turned out to be 86%.

For `CC1(C)CCc2c(-c3cc4cc(C(=O)N5CCC(CN6CCc7cc(C8CCC(=O)NC8=O)ccc7C6)CC5)ccc4[nH]3)n[nH]c2C1` (centres unmarked) [Compound 194], the Dmax is 64%. With `C[C@@]12Cc3[nH]nc(-c4cc5ccc(C(=O)N6CCN(CC7CCN(c8ccc(C9CCC(=O)NC9=O)cc8)CC7)CC6)cc5[nH]4)c3C[C@@H]1C2(F)F` (stereo partly drawn) [Compound 135, 3-(4-(4-((4-(2-((4aS,5aR)-5,5-difluoro-5a-methyl-1,4,4a,5,5a,6-hexahydrocyclopropa[f]indazol-3-yl)-1H-indole-6-carbonyl)piperazin-1-yl)methyl)piperidin-1-yl)phenyl)piperidine-2,6-dione], the DC50 was < 0.01 nM and the Dmax is 85%. In the case of `CC1(C)CCc2c(-c3cc4ccc(C(=O)N5CCC(CN6CCCN(c7ccc(C8CCC(=O)NC8=O)cn7)CC6)CC5)cc4[nH]3)n[nH]c2C1` (centres unmarked) [Compound 191], the Dmax turned out to be 78%. Compound `C[C@@]12Cc3[nH]nc(C(=O)Nc4cnn([C@H]5CCN(CC6CCN(c7ccc([C@H]8CCC(=O)NC8=O)cc7)CC6)C[C@@H]5F)c4)c3C[C@@H]1C2(F)F` (single isomer, unassigned) [Compound 95] came in with a DC50 of 0.6 nM and a Dmax of 90%. The matching figures for `C[C@@]12Cc3[nH]nc(C(=O)Nc4cnn(C5CCC(CN6CCC(Oc7ccc(C8CCC(=O)NC8=O)cn7)CC6)CC5)c4)c3C[C@@H]1C2(F)F` (stereo partly drawn) [Compound 124, (4aS,5aR)-5,5-difluoro-5a-methyl-N-{1-[(1rs,4rs)-4-{[4-({5-[(3R)-2,6-dioxopiperidin-3-yl]pyridin-2-yl}oxy)piperidin-1-yl]methyl}cyclohexyl]-1H-pyrazol-4-yl}-1H,4H,4aH,5H,5aH,6H-cyclopropa[f]indazole-3-carboxamide]: 3.7 nM and 90%. As for `C[C@@]12Cc3[nH]nc(C(=O)Nc4cnn(C5CCN(C(=O)C6CCC(Cn7cc8cc(C9CCC(=O)NC9=O)ccc8n7)CC6)CC5)c4)c3C[C@@H]1C2(F)F` (mixture of isomers) [Compound 165], the Dmax is 86%. `COC[C@@]1(C)CCc2c(-c3cc4ccc(C(=O)N5CCN(CC6CCN(c7ccc(C8CCC(=O)NC8=O)cc7)CC6)CC5)cc4[nH]3)n[nH]c2C1` (mixture of isomers) [Compound 224, (3RS)-3-(4-{4-[(4-{2-[(6S)-6-(methoxymethyl)-6-methyl-1,4,5,7-tetrahydroindazol-3-yl]-1H-indole-6-carbonyl}piperazin-1-yl)methyl]piperidin-1-yl}phenyl)piperidine-2,6-dione]: it took 8.5 nM to reach half-maximal degradation (DC50) and the Dmax is 84%. The compound `C[C@@]12Cc3[nH]nc(C(=O)Nc4cnn(C5CCN(C(=O)C6CCN(c7ccc(C8CCC(=O)NC8=O)cn7)C6)CC5)c4)c3C[C@@H]1C2(F)F` (mixture of isomers) [Compound 167] returned a Dmax of 86%. With `C[C@@]12Cc3[nH]nc(C(=O)Nc4cnn([C@@H]5CCN(CC6CCN(c7ccc(C(=O)N[C@H]8CCC(=O)NC8=O)nc7)CC6)C[C@H]5F)c4)c3C[C@@H]1C2(F)F` [Compound 94, (4aS,5aR)-N-(1-((3R,4R)-1-((1-(6-(((S)-2,6-dioxopiperidin-3-yl)carbamoyl)pyridin-3-yl)piperidin-4-yl)methyl)-3-fluoropiperidin-4-yl)-1H-pyrazol-4-yl)-5,5-difluoro-5a-methyl-1,4,4a,5,5a,6-hexahydrocyclopropa[f]indazole-3-carboxamide], half-maximal degradation (DC50) was put at 3.4 nM and the Dmax was determined as 83%. `C[C@@]12Cc3[nH]nc(C(=O)Nc4cnn(C5CCC(CN6CCN(c7ccc(C8CCC(=O)NC8=O)cn7)CC6)CC5)c4)c3C[C@@H]1C2(F)F` (mixture of isomers) [Compound 125, (4aS,5aR)-5,5-difluoro-5a-methyl-N-{1-[(1rs,4rs)-4-[(4-{5-[(3RS)-2,6-dioxopiperidin-3-yl]pyridin-2-yl}piperazin-1-yl)methyl]cyclohexyl]-1H-pyrazol-4-yl}-1H,4H,4aH,5H,5aH,6H-cyclopropa[f]indazole-3-carboxamide] returned a DC50 of 3.3 nM and a Dmax of 88%.

In the case of `COC[C@@]1(C)CCc2c(-c3cc4ccc(C(=O)N5CCN(CC6CCN(c7ccc(C8CCC(=O)NC8=O)cc7)CC6)CC5)cc4[nH]3)n[nH]c2C1` (some centres unmarked) [Compound 140], the Dmax stood at 84%. Turning to `C[C@@]12Cc3[nH]nc(C(=O)Nc4cnn([C@@H]5CCN(C[C@H]6CCN(c7ccc(C8CCC(=O)NC8=O)cc7)C6)C[C@H]5F)c4)c3C[C@@H]1C2(F)F` (stereo partly drawn) [Compound 99, (4aS,5aR)-N-(1-((3R,4R)-1-(((3R)-1-(4-(2,6-dioxopiperidin-3-yl)phenyl)pyrrolidin-3-yl)methyl)-3-fluoropiperidin-4-yl)-1H-pyrazol-4-yl)-5,5-difluoro-5a-methyl-1,4,4a,5,5a,6-hexahydrocyclopropa[f]indazole-3-carboxamide], the DC50 worked out at 3.7 nM and the Dmax was determined as 85%. `C[C@@H]1CN(CC2CCN(c3ccc(C4CCC(=O)NC4=O)cn3)CC2)CCN1C(=O)c1ccc2cc(-c3n[nH]c4c3CCC(C)(C)C4)[nH]c2c1` (stereo partly drawn) [Compound 132, 3-(6-(4-(((R)-4-(2-(6,6-dimethyl-4,5,6,7-tetrahydro-1H-indazol-3-yl)-1H-indole-6-carbonyl)-3-methylpiperazin-1-yl)methyl)piperidin-1-yl)pyridin-3-yl)piperidine-2,6-dione] registered a DC50 of 7 nM and a Dmax of 82%. `C[C@@]12Cc3[nH]nc(C(=O)Nc4cnn([C@H]5CCN(CC6CCN(c7ccc(C(=O)N[C@H]8CCC(=O)NC8=O)nc7)CC6)C[C@@H]5F)c4)c3C[C@@H]1C2(F)F` [Compound 93, (4aS,5aR)-N-(1-((3S,4S)-1-((1-(6-(((S)-2,6-dioxopiperidin-3-yl)carbamoyl)pyridin-3-yl)piperidin-4-yl)methyl)-3-fluoropiperidin-4-yl)-1H-pyrazol-4-yl)-5,5-difluoro-5a-methyl-1,4,4a,5,5a,6-hexahydrocyclopropa[f]indazole-3-carboxamide]: it took 1.9 nM to reach half-maximal degradation (DC50) and the Dmax came out at 97%.
